Data published in the supplement of paper PMC10307832.

Key:
Assay in all cases: relative viability (nuclei count vs DMSO), 5 days (fraction); higher = more cells survive
[1] = compound: CN(c1ncccc1CNc1nc(Nc2ccc3c(c2)CC(=O)N3)ncc1C(F)(F)F)S(C)(=O)=O + CS(=O)(=O)CCNCc1ccc(-c2ccc3ncnc(Nc4ccc(OCc5cccc(F)c5)c(Cl)c4)c3c2)o1 [Lapatinib] (partner 2 µM)
How it was run: (§1)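 Lung cancer cell lines, seeded in 1536-well plates, were treated the following day by pin tool with a single drug or with five library-drug doses (not always all listed) in √10 steps on top of a fixed anchor-drug dose. Cells were fixed and nuclei stained in one step after 5 days, and nuclei were counted. Relative viability is the nuclei count for treated wells divided by that for vehicle wells, reported as medians of duplicate plates.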

[2] = compound: CN(c1ncccc1CNc1nc(Nc2ccc3c(c2)CC(=O)N3)ncc1C(F)(F)F)S(C)(=O)=O + C[C@@H](Oc1cc(-c2cnn(C3CCNCC3)c2)cnc1N)c1c(Cl)ccc(F)c1Cl [Crizotinib] (partner 1 µM)
How it was run: as §1

[3] = compound: CN(c1ncccc1CNc1nc(Nc2ccc3c(c2)CC(=O)N3)ncc1C(F)(F)F)S(C)(=O)=O + Cc1nc(Nc2ncc(C(=O)Nc3c(C)cccc3Cl)s2)cc(N2CCN(CCO)CC2)n1 [Dasatinib] (partner 0.075 µM)
How it was run: as §1

[4] = compound: CN(c1ncccc1CNc1nc(Nc2ccc3c(c2)CC(=O)N3)ncc1C(F)(F)F)S(C)(=O)=O + Nc1nc2[nH]cc(CCc3ccc(C(=O)N[C@@H](CCC(=O)O)C(=O)O)cc3)c2c(=O)[nH]1 [Pemetrexed] (partner 0.2 µM)
How it was run: as §1

Row | Cell Line | relative viability ([1]; first compound 0.01 µM) | relative viability ([1]; first compound 0.03162 µM) | relative viability ([1]; first compound 0.1 µM) | relative viability ([1]; first compound 0.3162 µM) | relative viability ([1]; first compound 1 µM) | relative viability ([2]; first compound 0.01 µM) | relative viability ([2]; first compound 0.03162 µM) | relative viability ([2]; first compound 0.1 µM) | relative viability ([2]; first compound 0.3162 µM) | relative viability ([2]; first compound 1 µM) | relative viability ([3]; first compound 0.01 µM) | relative viability ([3]; first compound 0.03162 µM) | relative viability ([3]; first compound 0.1 µM) | relative viability ([3]; first compound 0.3162 µM) | relative viability ([3]; first compound 1 µM) | relative viability ([4]; first compound 0.01 µM) | relative viability ([4]; first compound 0.03162 µM) | relative viability ([4]; first compound 0.1 µM) | relative viability ([4]; first compound 0.3162 µM) | relative viability ([4]; first compound 1 µM)
1 | NCI-H1437 | 0.876 | 0.944 | 0.813 | 0.722 | 0.725 | 0.912 | 1.02 | 0.884 | 0.856 | 0.77 | 0.401 | 0.391 | 0.426 | 0.204 | 0.427 | 0.332 | 0.335 | 0.33 | 0.347 | 0.398
2 | NCI-H2085 | 0.777 | 0.81 | 0.797 | 0.696 | 0.662 | 0.94 | 0.799 | 0.742 | 0.778 | 0.648 | 0.215 | 0.232 | 0.178 | 0.183 | 0.152 | 0.917 | 0.774 | 0.885 | 0.953 | 0.947
3 | H3255 | 0.24 | 0.221 | 0.237 | 0.192 | 0.252 | 0.945 | 1.03 | 0.832 | 0.663 | 0.839 | 0.368 | 0.347 | 0.356 | 0.385 | 0.378 | 0.647 | 0.585 | 0.541 | 0.614 | 0.549
4 | NCI-H650 | 0.977 | 0.971 | 0.813 | 0.703 | 0.992 | 0.68 | 0.727 | 0.675 | 0.538 | 0.675 | 0.445 | 0.459 | 0.434 | 0.434 | 0.456 | 0.884 | 0.935 | 0.826 | 1.04 | 0.621
5 | LOU-NH91 | 0.777 | 0.714 | 0.73 | 0.743 | 0.741 | 0.78 | 0.751 | 0.727 | 0.692 | 0.763 | 0.56 | 0.526 | 0.491 | 0.501 | 0.448 | 0.423 | 0.368 | 0.375 | 0.382 | 0.338
6 | NCI-H1650 | 0.78 | 0.9 | 0.805 |  | 0.592 | 1.01 | 0.945 | 1.17 |  | 0.94 | 0.303 | 0.367 | 0.339 | 0.303 | 0.327 | 0.379 | 0.321 | 0.432 | 0.384 | 0.318
7 | NCI-H3122 | 1.02 | 1.08 | 1.01 | 0.956 | 0.876 | 0.283 | 0.289 | 0.283 | 0.278 | 0.241 | 0.802 | 1.02 | 0.787 | 0.746 | 0.764 | 0.202 | 0.194 | 0.175 | 0.181 | 0.193
8 | PC-3 [JPC-3] | 0.441 | 0.395 | 0.446 | 0.471 | 0.432 | 0.968 | 0.992 | 1.02 | 0.927 | 0.841 | 0.988 | 0.949 | 0.892 | 0.911 | 0.953 | 1.02 |  | 1.13 | 1.07 | 1.18
9 | NCI-H1651 | 0.82 | 1.02 | 0.9 | 0.731 | 0.784 | 0.858 | 0.85 | 0.871 | 0.846 | 0.884 | 0.47 | 0.374 | 0.38 | 0.316 | 0.282 | 0.585 | 0.593 | 0.558 | 0.575 | 0.579
10 | NCI-H2087 | 1.44 | 1.12 | 0.876 | 0.927 | 0.893 | 0.787 | 0.915 | 0.784 | 0.889 | 0.749 | 0.828 | 0.795 | 0.61 | 0.542 | 0.451 | 0.695 | 0.751 | 0.685 | 0.728 | 0.584
